The text below walks through data of article PMC7399337, “Biological Properties and Absolute Configuration of Flavanones From Calceolaria thyrsiflora Graham” (Frontiers in Pharmacology, 2020).

Series [1] has as its system B16-F10 mouse metastatic melanoma cells. The experiment in a line: In vitro cytotoxic activity, CyQuant cell viability, 72 h. The settings on record: for CC50: Mus musculus, B16-F10, 72 h, read-out: LC50 ± SD. The format is cell-based. How it is done:
Cell viability was measured using a CyQuant® Direct Cell Proliferation Assay Kit (Life Technologies, Grand Island, NY, USA) following the manufacturer’s instruction. Briefly, 5,000 cells per well were seeded onto a flat-bottom 96-well plate in 200 μL final volume. Six hours after seeding, the culture medium was replaced by the medium containing the tested compounds at 0.01 to 100 µM concentrations in DMSO (0.1% final concentration) during 72 h. Untreated cells (medium containing only 0.1% DMSO) were used as controls. At the end of the incubation, 100 μL of culture medium was removed from each well and replaced by detection reagent solution provided by the kit (which is a 1:5 mixture of the reagent CyQUANT®, direct nucleic acid stain and the reagent labeled as CyQUANT® direct background suppressor I). […] At least four independent experiments were performed for each concentration.

In a further series the target is T1, 5-hLOX (Homo sapiens, UniProt P09917).
T1 construct: purchased Cayman Chemicals Inc. (Ann Arbor, MI, USA)
T1 sequence (P09917 1-674): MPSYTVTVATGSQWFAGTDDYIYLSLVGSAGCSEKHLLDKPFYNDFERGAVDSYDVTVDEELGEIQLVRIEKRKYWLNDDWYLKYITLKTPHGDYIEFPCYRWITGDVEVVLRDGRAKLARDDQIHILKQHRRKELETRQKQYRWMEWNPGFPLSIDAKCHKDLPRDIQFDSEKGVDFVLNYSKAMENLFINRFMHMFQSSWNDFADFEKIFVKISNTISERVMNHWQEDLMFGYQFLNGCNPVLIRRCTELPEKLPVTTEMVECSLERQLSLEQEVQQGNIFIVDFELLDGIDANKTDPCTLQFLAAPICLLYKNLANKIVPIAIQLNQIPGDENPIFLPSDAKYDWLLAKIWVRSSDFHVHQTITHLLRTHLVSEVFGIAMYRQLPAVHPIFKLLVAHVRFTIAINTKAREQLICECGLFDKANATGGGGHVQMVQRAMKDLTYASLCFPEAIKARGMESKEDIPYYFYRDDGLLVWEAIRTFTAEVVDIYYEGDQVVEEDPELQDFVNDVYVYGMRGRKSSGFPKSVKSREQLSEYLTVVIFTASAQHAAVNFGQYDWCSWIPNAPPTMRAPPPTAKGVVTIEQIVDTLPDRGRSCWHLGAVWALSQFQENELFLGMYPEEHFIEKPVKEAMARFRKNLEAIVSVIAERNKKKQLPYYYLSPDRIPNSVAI
The series is described as follows: In vitro 5-hLOX enzyme assay (H2DCFDA fluorescence). The format is biochemical. The settings on record: for Type of inhibition: 5-hLOX; for inhibition at 10 µM: Flavanones at 10 µM. As to the method: The commercially available enzyme 5-hLOX from Cayman Chemicals Inc. (Ann Arbor, MI, USA), was diluted (1:500) in the assay buffer. This contained 4-(2-hydroxyethyl)-1-piperazineethane sulfonic acid (HEPES) 50 mM, ethylenediamine tetraacetic acid (EDTA) 2 mM, adenosine triphosphate (ATP) 10 μM, and CaCl2 10 μM at pH 7.5) admixed with 10 μM of H2DCFDA. The reaction mixture was incubated for 15 min in the assay plate. Later, 280 μL of buffer and 10 μM of inhibitors were added per well and incubated for 30 min at 37°C. Finally, the reaction was started by adding a suitable concentration of arachidonic acid (0.5 μM) and the fluorescence was read in a multimode detector Synergy™ HT Multi-Mode Microplate Reader (Biotek, Bad Friedrichshall, Germany) […] after incubation at room temperature for 1 h. The IC50 values were obtained for analysis of oxidation of H2DCFDA dye to the highly fluorescent 2’,7’-dichloro-fluorescein (DCF) using the non-linear curve-fitting program. […] All data were collected in duplicate and the assays were performed on different days to ensure reproducibility.

The next series has as its target T2, 15-sLOX (Glycine max, UniProt P08170).
T2 construct: purchased Cayman Chemical Item No. 60712
T2 sequence (P08170 1-839): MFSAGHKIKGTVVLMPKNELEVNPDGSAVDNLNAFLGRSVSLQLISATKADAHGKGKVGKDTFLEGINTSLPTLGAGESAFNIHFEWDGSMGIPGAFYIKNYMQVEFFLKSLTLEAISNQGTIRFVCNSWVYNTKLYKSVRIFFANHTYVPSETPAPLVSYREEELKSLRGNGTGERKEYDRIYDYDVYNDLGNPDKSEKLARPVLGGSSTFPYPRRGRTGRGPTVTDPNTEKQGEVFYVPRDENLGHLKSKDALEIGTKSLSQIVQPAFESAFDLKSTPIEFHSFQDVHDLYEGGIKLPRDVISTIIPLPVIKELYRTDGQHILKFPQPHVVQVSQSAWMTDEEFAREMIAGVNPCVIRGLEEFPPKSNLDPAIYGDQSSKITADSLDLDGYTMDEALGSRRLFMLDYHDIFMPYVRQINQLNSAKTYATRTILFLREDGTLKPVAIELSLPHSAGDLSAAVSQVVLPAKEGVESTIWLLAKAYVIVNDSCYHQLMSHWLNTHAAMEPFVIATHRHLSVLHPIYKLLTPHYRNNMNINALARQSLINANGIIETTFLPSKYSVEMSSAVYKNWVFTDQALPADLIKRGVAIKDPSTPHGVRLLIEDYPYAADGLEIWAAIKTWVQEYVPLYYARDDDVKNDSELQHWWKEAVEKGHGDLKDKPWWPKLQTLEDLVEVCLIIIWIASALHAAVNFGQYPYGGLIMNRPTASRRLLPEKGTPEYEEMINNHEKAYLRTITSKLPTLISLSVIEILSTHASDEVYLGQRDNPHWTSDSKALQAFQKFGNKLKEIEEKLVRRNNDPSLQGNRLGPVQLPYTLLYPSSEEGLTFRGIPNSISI
The experiment in a line: In vitro 15-sLOX enzyme assay (absorbance at 234 nm). The format is biochemical. The settings on record: Flavanones at 10 µM (table footnote); method: 5 µg/ml. How it is done:
The activity of 15-sLOX (Cayman Chemical Item No. 60712) was determined following the formation of reaction products at 234 nm (ϵ = 25,000 M^-1 cm^-1) in a Perkin-Elmer Lambda 25 UV/Vis spectrophotometer. All reactions were performed at a final volume of 2 ml and were constantly stirred using a magnetic bar at room temperature. The reaction medium used contained 25 mM HEPES buffer (pH 7.4), Triton X-100 0.01%, and the arachidonic acid (AA) substrate at a 10 µM concentration determine preliminary percent inhibition (%I). AA concentration was determined quantitatively by allowing the enzymatic reaction to go to completion. The reaction was carried out by adding the inhibitor dissolved in DMSO (5 µg/ml in the reaction medium) to the bucket with the substrate buffer, and finally the enzyme was added. Assays were performed in duplicate on three different days. GraphPad Prism Demo V.7 performed the graphics for IC50 and kinetics studies ([GraphPad-Software-Inc., 2017]).

Where two headings read alike, the source gives them in different places.

A word on the IC50: it is the concentration needed to halve the response being measured. In general, Ki refers to a dissociation constant, usually derived from enzyme kinetics or from competition with a known ligand. As a reminder, the inhibition is how much of the control response was suppressed. Regarding `COc1cc(O)c2c(c1)O[C@H](c1ccc(O)cc1)CC2=O` [Compound 1, (-)-(2S)-5,4’-dihydroxy-7-methoxyflavanone], in series [1] (B16-F10, 72 h), the “LC50 ± SD” value is reported as “no significant cytotoxic activity”. In series [1], the CC50 came out at 72 ± 7.16 µM. Also, on 5-hLOX, the IC50 came to 11.3 µM, the Ki is 4.71 µM, the Type of inhibition result is “non-competitive” and the inhibition at 10 µM came out at 61 ± 1.34%. This compound also showed an inhibition at 10 µM against 15-sLOX of 7 ± 3.12%.
In the case of `COc1cc(O)c2c(c1)O[C@H](c1ccc(O)c(O)c1)CC2=O` [Compound 2, (-)-(2S)-5,3’,4’-trihydroxy-7-methoxyflavanone], in series [1] (B16-F10), the “fold less cytotoxic activity against B16-F10 than etoposide” value worked out at 4.6 fold and the “fold less cytotoxic activity against B16-F10 than taxol” value came to 17 fold. Besides, the “selectivity towards B16-F10 as compared to non-cancerous cells (MEF)” value in series [1] (LC50 MEF versus B16-F10) is 4 fold. Further, the CC50 in series [1] was found to be 8.07 ± 1.61 µM. On 5-hLOX, the Type of inhibition result is “competitive” and the inhibition at 10 µM came to 93 ± 0.791%. Also, at 5-hLOX (read-out: IC50 (5-hLOX)), the half-maximal inhibitory concentration (IC50) came to 0.1 µM. At 15-sLOX, at 10 µM the inhibition was 26 ± 3.96%.
